In patent US8202910B2 (Sequella, Inc., priority 2006, dated 2012):
Converted amounts (≈) assume the structure as drawn. “And” between values parts separate entries of the source, which are not always exact repeats. Equal entries are not always repeated. “Also recorded” adds a separate entry of the source. Where two headings read alike, the source gives them in different places.

What was measured:
[1] = tested on: H37Rv strain of Mycobacterium tuberculosis; assay: microbe, parasite or virus in culture; type: cell-based
[2] = Maximum tolerated dose, one-time gavage dose in mice; type: in vivo
Method: […] Each dose of each compound consisted of one group of 3 mice. Monitoring of the mice was done twice a day for the duration of the experiment. […] The MTD (mg/kg) is the highest dose that results in no lethality/tissue abnormality.
• 1. […] The compounds are dissolved in the appropriate concentration of ethanol in distilled water and administered in a volume of 0.2 ml per mouse. • 2. Observation of mice: Mice will be observed 4 and 6 hours post administration, then twice daily for one week. Survival and body weight of mice will be closely monitored throughout the study. • 3. […] Critical organs will be aseptically removed and observed; tissues from the liver, heart, and kidneys are extracted and placed into 10% formalin solution. These fixed tissues are sectioned and examined for abnormalities resulting from drug toxicity.

[3] = tested on: M. tuberculosis H37Rv; assay: In vivo efficacy, mice infected i.v. with M. tuberculosis, CFU in spleen and lungs; design: species or system C57BL/6 mice
[4] = PK, tissue distribution, excretion and metabolism of compound 109 in mice; type: in vivo; design: Amount cumulatively excreted, Feces / Amount cumulatively excreted, Urine: unit not given here; details: for half-life: read-out: T1/2 el (converted)
Method: Initially, analytical methods for determination of the compounds had been developed that allowed to carry out all the PK experiments, sec FIG. 29. Here is a brief description of the experiment: (1) plasma spiked with tested compounds and 10 uL of Terfenadine or plasma samples (200 uL) added; (2) ACN (2 mL) added to precipitate protein and spin at 2,500 rpm; (3) evaporate supernatant to dryness; (4) add 200 uL of the diluting solvent: methanol (with 0.1% of trifluoroacetic acid): ammonium acetate (80/20); (5) vortex, spin, and use supernatant; (6) run LC/MS/MS on Sciex API 3000.
Conjugated metabolites are products of the typical metabolic pathway N-glucoronidation formed by reaction with glucuronic acid (D. A. Williams and T. L. Lemke in Foye's Principals of Medicinal Chemistry, 5th Ed., p.202).

[5] = in vitro; type: in vitro ADME; details: plasma
[6] = tested on: muscarinic receptor (M, non-selective); assay: CEREP receptor binding, muscarinic M; details: tested at 10 μM
Text: In vitro testing for safety pharmacology and early ADMET (Absorption, Distribution, Metabolism, Excretion, Toxicity) studies of compound 109 were contracted out to CEREP (15318 NE 95th Street, Redmond, Wash., 98052, USA www.cerep.com) under a service agreement and included evaluation of inhibitory binding to a panel of 27 standard receptors and three transporters (See FIG. 60 (Table 31) and FIG. 61 (Table 32)) which included: adenosine receptors (A1 and A2A), adrenergic receptors (alpha 1, alpha 2, beta 1), angiotensin II receptor (AT1), benzodiazapene receptor (BZD), bradykinin receptor (B2), cholecystokinin receptor (CCK1), dopamine receptors (D1, D2S), endothelin receptor (ETA), GABA receptor (GABA), glutamate receptor (NMDA), histamine receptor (H1 central), melanocortin receptor (MC4), muscarinic receptor (M, non-selective), neurokinin receptor (NK1), neuropeptide Y receptor (Y), nicotinic receptor (neuronal, alpha-BGTX-insensitive), opiate receptor (non-selective opiate), orphanin receptor (ORL1), phencyclidine receptor (PCP), serotonin receptor (5-HT), sigma receptor (sigma non-selective), steroid receptor (glucocorticoid receptor, GR), and NE, DA, and 5-HT transporters.
The specific ligand binding to the receptors is defined as the difference between the total binding and the nonspecific binding determined in the presence of an excess of unlabelled ligand.

[7] = tested on: RIF^R M. tuberculosis isolate 2482; assay: microbe, parasite or virus in culture; type: cell-based; details: Mycobacterium tuberculosis, read-out: MIC (BACTEC)

CC(C)=CCC/C(C)=C/CNCCNC1C2CC3CC(C2)CC1C3 (centres unmarked) [Compound 109, N-Geranyl-N′-(2-adamanthyl)ethane-1,2-diamine]
MIC [1]: 1.953 µM and 1.95 µM
MIC ([1]; Mycobacterium tuberculosis, H37RV, Table 10, from uM and MW, read-out: MIC): 0.879 µg/mL
MIC ([1]; Mycobacterium tuberculosis, H37RV, Table 10, read-out: MIC): 1.95 µM
MIC ([1]; Mycobacterium tuberculosis, H37RV, Table 15, read-out: MIC): 1.56 µM
MIC ([1]; Mycobacterium tuberculosis, H37RV, previously determined, read-out: MIC by micro-broth dilution): 0.2 µM and 0.11 µg/mL
MIC ([1]; Mycobacterium tuberculosis, H37RV, read-out: MIC): 1.95 µM
Mice ([2]; 109 as HCl salt at 800 mg/kg, day 1): 3
Mice ([2]; 109 as HCl salt at 800 mg/kg, day 2): 2/1
Mice ([2]; 109 as HCl salt at 800 mg/kg, day 3): 1/1
Mice ([2]; 109 as HCl salt at 800 mg/kg, day 4): 1
Mice ([2]; 109 as HCl salt at 800 mg/kg, day 5): 1
Mice ([2]; 109 as HCl salt at 800 mg/kg, day 6): 1
Mice ([2]; 109 as HCl salt at 800 mg/kg, day 7): 1
Day of death ([2]; 109 as HCl salt at 800 mg/kg, 800 mg/kg): 2 and 3
Mice ([2]; 109 as TFA salt at 800 mg/kg, day 1): 1
Mice ([2]; 109 as TFA salt at 800 mg/kg, day 2): 1
Mice ([2]; 109 as TFA salt at 800 mg/kg, day 3): 1
Mice ([2]; 109 as TFA salt at 800 mg/kg, day 4): 1
Mice ([2]; 109 as TFA salt at 800 mg/kg, day 5): 1
Mice ([2]; 109 as TFA salt at 800 mg/kg, day 6): 1
Mice ([2]; 109 as TFA salt at 800 mg/kg, day 7): 1
Mice ([2]; 109 at 100 mg/kg, day 1): 3
Mice ([2]; 109 at 100 mg/kg, day 2): 3
Mice ([2]; 109 at 100 mg/kg, day 3): 3
Mice ([2]; 109 at 100 mg/kg, day 4): 3
Mice ([2]; 109 at 100 mg/kg, day 6): 3
Mice ([2]; 109 at 100 mg/kg, day 7): 3
Mice ([2]; 109 at 300 mg/kg, day 1): 3
Mice ([2]; 109 at 300 mg/kg, day 2): 3
Mice ([2]; 109 at 300 mg/kg, day 3): 3
Mice ([2]; 109 at 300 mg/kg, day 4): 3
Mice ([2]; 109 at 300 mg/kg, day 6): 3
Mice ([2]; 109 at 300 mg/kg, day 7): 3
Mice ([2]; 109 at 600 mg/kg, day 1): 3
Mice ([2]; 109 at 600 mg/kg, day 2): 3
Mice ([2]; 109 at 600 mg/kg, day 3): 3
Mice ([2]; 109 at 600 mg/kg, day 4): 3
Mice ([2]; 109 at 600 mg/kg, day 6): 3
Mice ([2]; 109 at 600 mg/kg, day 7): 3
Mice ([2]; 109 at 1000 mg/kg, day 1): 3
Mice ([2]; 109 at 1000 mg/kg, day 2): 2
Mice ([2]; 109 at 1000 mg/kg, day 3): 2
Mice ([2]; 109 at 1000 mg/kg, day 4): 1
Mice ([2]; 109 at 1000 mg/kg, day 6): 0
MTD at 1 week ([2]; female, C57BL/6, mouse, in vivo, po, one-time dose by gavage): 600 mg/kg
changes in organs ([2]; mice surviving one week): No visible changes in organs
fatal dose ([2]; one-time dose, two of 3 mice died within 3 days): 800 mg/kg
difference with untreated control, spleen and lung ([3]; 0.1 mg/kg after 4 weeks of therapy, 5×10^6 CFU): minimal but sufficient difference with untreated control
activity in the spleen compared with EMB ([3]; 1 mg/kg and 10 mg/kg, 5×10^5 CFU, chemotherapy from day 20): equal to that of EMB at 100 mg/kg
activity in the lung compared with EMB ([3]; 10 mg/kg after 4 and 6 weeks, 5×10^5 CFU): more effective than EMB at 100 mg/kg
activity in spleen and lung compared with EMB ([3]; 10 mg/kg and 25 mg/kg, shorter model, 5×10^6 CFU, 4 weeks): equal to that of EMB at 100 mg/kg
activity (CFUs in spleen and lungs) compared with ethambutol ([3]; doses 1 and 10 mg/kg, orally by gavage): equal to that of ethambutol at 100 mg/kg
Amount cumulatively excreted, Feces ([4]; 3 mg/kg i.v., 0-4 h): <0.01
Amount cumulatively excreted, Urine ([4]; 3 mg/kg i.v., 0-4 h, unit not given): <0.01
Amount cumulatively excreted, Feces ([4]; 3 mg/kg i.v., 4-8 h): 0.01
Amount cumulatively excreted, Urine ([4]; 3 mg/kg i.v., 4-8 h): <0.01
Amount cumulatively excreted, Feces ([4]; 3 mg/kg i.v., 8-24 h): 0.04
Amount cumulatively excreted, Urine ([4]; 3 mg/kg i.v., 8-24 h): 0.03
Amount cumulatively excreted, Feces ([4]; 3 mg/kg i.v., 24-32 h): <0.01
Amount cumulatively excreted, Urine ([4]; 3 mg/kg i.v., 24-32 h): 0.01
Amount cumulatively excreted, Feces ([4]; 3 mg/kg i.v., Total 0-32 h): 0.06
Amount cumulatively excreted, Urine ([4]; 3 mg/kg i.v., Total 0-32 h): 0.04
Amount cumulatively excreted, Feces ([4]; 25 mg/kg p.o., 0-4 h): 0.48
Amount cumulatively excreted, Feces ([4]; 25 mg/kg p.o., 4-8 h): 0.31
Amount cumulatively excreted, Feces ([4]; 25 mg/kg p.o., 8-24 h): 1.12
Amount cumulatively excreted, Feces ([4]; 25 mg/kg p.o., 24-32 h): 0.08
Amount cumulatively excreted, Feces ([4]; 25 mg/kg p.o., Total 0-32 h): 2.0
tissue distribution ([4]; i.v. 3 mg/kg, p.o. 25 mg/kg): primarily distributes into the lungs and spleen
plasma level relative to MBC ([4]; iv or p.o.): reaches and exceeds its Minimum Bactericidal Concentration
metabolites (breakdown products) in urine ([4]; mouse urine): did not provide evidence of breakdown products
conjugated (N-glucoronidation) metabolites in urine ([4]; mouse urine, first 24 hr): No glucoronidation metabolites; also recorded: no evidence for the formation of conjugated metabolites
total amount after excretion (urine and feces) ([4]; mouse, in vivo): ≤ 3 % of the delivered dose
total clearance ([4]; mouse, in vivo): less than hepatic blood flow
AUC ([4]; mouse, in vivo, iv, 3 mg/kg): 792 ng·h/mL
Cmax ([4]; mouse, in vivo, iv, 3 mg/kg): 1040 ng/mL
Tmax ([4]; mouse, in vivo, iv, 3 mg/kg): 0 h
clearance ([4]; mouse, in vivo, iv, 3 mg/kg): 63.1 mL/min/kg
half-life ([4]; mouse, in vivo, iv, 3 mg/kg): 3.5 h
Vd ([4]; mouse, in vivo, iv, 3 mg/kg, read-out: Vdss): 11.8 L/kg
AUC ([4]; mouse, in vivo, po, 25 mg/kg): 254 ng·h/mL
Cmax ([4]; mouse, in vivo, po, 25 mg/kg): 135 ng/mL
Tmax ([4]; mouse, in vivo, po, 25 mg/kg): 0.31 h
bioavailability ([4]; mouse, in vivo, po, 25 mg/kg): 3.8%
half-life ([4]; mouse, in vivo, po, 25 mg/kg): 5.2 h
fraction unbound at 20 ng/ml [5]: 0.85
fraction unbound at 200 ng/ml [5]: 0.26
fraction unbound at 2000 ng/ml [5]: 0.52
inhibition of control specific binding [6]: 96%
MIC [7]: 0.32 µg/mL (≈ 0.968 µM)
